In US6900336B2, “8-aza-11-deoxy prostaglandin analogues” (Syntex (U.S.A.) LLC, priority 2001, dated 2005):

Assays:
rEP3 Receptor = molecular target: T1, rEP3 Receptor (UniProt P34980); test: Competitive Binding Assay of [3H]PGE2 to rEP3 Receptor; settings: 3 nM [3H]PGE2, membrane fraction, 1 hr at 30° C.; read-out: EP3, Ki
T1 sequence (P34980 1-365): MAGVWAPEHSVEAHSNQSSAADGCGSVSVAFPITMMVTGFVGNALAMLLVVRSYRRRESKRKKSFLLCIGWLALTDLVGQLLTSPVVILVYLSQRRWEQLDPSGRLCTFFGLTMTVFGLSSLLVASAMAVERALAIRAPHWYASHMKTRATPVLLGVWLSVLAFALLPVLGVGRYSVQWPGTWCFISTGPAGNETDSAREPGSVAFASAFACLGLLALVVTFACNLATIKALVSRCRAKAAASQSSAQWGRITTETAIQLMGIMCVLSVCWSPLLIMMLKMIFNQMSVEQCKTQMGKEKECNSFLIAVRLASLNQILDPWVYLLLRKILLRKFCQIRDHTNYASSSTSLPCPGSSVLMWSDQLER
Protocol: (§1) Competitive Binding Assay of [^3H]PGE2 to rEP1 or rEP3 Receptor
(§2) The cells were maintained in culture then harvested upon confluency. […] Incubations were conducted for 1 hr at 30° C. prior to separation of the bound and free radioligand by rapid filtration. Residual [^3H]PGE2 bound to the filter was quantitated by liquid scintillation counting. The Ki of a compound was calculated by the program of one site binding calculation of Prism.

EP4 Receptor = molecular target: T2, EP4 Receptor (Homo sapiens, UniProt P35408); test: EP4 Ki (table under competitive [3H]PGE2 binding assay)
T2 construct: host or cells: unnamed cultured cells, membrane fraction
Protocol: [Worded in the source for another target; this target is reported under the same test.] as §1
as §2, with “confluency. The membrane was prepared by two times of centrifugation (12,000× g for 15 min) following lysis of cells by polytron homogenization of 15 sec. in 10 volume of 20 mM Hepes pH 7.4 containing 1 mM EDTA, 10 mM MgCl2, 20 uM indomethacin at 4° C.” for “confluency.”

EP2 Receptor = molecular target: T3, EP2 Receptor (Homo sapiens, UniProt P43116); test: EP2 Ki (table under competitive [3H]PGE2 binding assay)
T3 construct: host or cells: unnamed cultured cells, membrane fraction

rEP1 Receptor = molecular target: T4, rEP1 Receptor (UniProt P70597); test: Competitive Binding Assay of [3H]PGE2 to rEP1 Receptor; settings: 3 nM [3H]PGE2, membrane fraction, 1 hr at 30° C.; read-out: EP1, Ki
T4 sequence (P70597 1-405): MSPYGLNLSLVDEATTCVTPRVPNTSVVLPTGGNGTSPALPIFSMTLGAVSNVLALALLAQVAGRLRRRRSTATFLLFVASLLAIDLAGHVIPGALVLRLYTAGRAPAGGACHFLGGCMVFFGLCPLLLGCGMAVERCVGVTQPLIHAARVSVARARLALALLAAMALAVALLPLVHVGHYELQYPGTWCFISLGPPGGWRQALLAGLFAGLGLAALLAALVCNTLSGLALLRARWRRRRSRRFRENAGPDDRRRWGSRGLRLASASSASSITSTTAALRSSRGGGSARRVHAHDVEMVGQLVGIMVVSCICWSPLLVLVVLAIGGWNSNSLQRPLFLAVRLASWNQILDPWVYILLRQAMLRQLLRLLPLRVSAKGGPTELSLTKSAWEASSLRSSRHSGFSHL
Protocol: as §1
as §2, with “confluency. The membrane was prepared by two times of centrifugation (12,000× g for 15 min) following lysis of cells by polytron homogenization of 15 sec. in 10 volume of 20 mM Hepes pH 7.4 containing 1 mM EDTA, 10 mM MgCl2, 20 uM indomethacin at 4° C.” for “confluency.”

T3 sequence (P43116 whole entry): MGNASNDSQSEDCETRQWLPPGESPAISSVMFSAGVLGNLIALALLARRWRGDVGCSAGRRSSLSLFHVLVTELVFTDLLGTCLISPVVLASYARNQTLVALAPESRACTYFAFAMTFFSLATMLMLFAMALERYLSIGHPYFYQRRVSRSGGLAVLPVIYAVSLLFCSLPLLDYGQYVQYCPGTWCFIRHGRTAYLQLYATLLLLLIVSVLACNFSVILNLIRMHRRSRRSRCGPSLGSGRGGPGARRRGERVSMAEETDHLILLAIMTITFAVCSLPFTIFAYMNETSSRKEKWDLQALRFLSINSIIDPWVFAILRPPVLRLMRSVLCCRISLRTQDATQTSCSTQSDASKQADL
T2 sequence (P35408 whole entry): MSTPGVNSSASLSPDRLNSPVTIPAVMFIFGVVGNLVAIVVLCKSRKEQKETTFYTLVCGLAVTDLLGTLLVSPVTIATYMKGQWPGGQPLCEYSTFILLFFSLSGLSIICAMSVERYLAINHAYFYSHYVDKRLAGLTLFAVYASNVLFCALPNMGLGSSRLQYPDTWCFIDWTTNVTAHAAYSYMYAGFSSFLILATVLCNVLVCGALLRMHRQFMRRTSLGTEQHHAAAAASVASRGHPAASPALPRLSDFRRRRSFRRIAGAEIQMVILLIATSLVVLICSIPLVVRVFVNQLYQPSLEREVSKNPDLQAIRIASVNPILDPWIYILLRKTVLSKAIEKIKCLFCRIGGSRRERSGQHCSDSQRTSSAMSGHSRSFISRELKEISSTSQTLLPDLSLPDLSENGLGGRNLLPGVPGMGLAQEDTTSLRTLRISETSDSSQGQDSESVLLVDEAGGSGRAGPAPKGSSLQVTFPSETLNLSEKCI

| Ki (rEP1 Receptor) | SMILES | Ki (rEP3 Receptor) | Ki (EP4 Receptor) | Ki (EP2 Receptor) |
| --- | --- | --- | --- | --- |
| – | CCCCC[C@H](O)/C=C/[C@H]1CCC(=O)N1CCc1ccc(C(=O)O)cc1 [Compound 76, 4-{2-[(R)-2-((E)-3-Hydroxy-oct-1-enyl)-5-oxo-pyrrolidin-1-yl]-ethyl}-benzoic Acid] | 11 µM | 0.0012 µM | 0.13 µM |
| – | CCCCCC(O)/C=C/[C@H]1CCC(=O)N1CCc1ccc(C(=O)O)s1 (stereo partly shown) [Compound 82] | > 100 µM | 0.069 µM | 3.7 µM |
| > 100 µM | CC1(C)C[C@H](/C=C/C(O)c2ccc(C(F)(F)F)o2)N(CCCCCCC(=O)O)C1=O (stereo partly drawn) [Compound 55, 7-{(R)-5-[(E)-3-hydroxy-3-(5-trifluoromethyl-furan-2-yl)-propenyl]-3,3-dimethyl-2-oxo-pyrrolidin-1-yl}-heptanoic acid] | > 100 µM | 0.007 µM | > 100 µM |
| – | COCc1cccc(CC(O)/C=C/[C@H]2CC(C)(C)C(=O)N2CCCCCCC(=O)O)c1 (stereo partly drawn) [Compound 59, 7-{(R)-5-[(E)-3-Hydroxy-4-(3-methoxymethyl-phenyl)-but-1-enyl]-3,3-dimethyl-2-oxo-pyrrolidin-1-yl}-heptanoic acid] | > 100 µM | 0.07 µM | > 100 µM |
| – | Cc1cc(Cl)ccc1-c1cccc([C@H](O)CC[C@H]2CCC(=O)N2CCc2ccc(C(=O)O)cc2)c1 [Compound 81, 4-(2-{(S)-2-[(R)-3-(4′-Chloro-2′-methyl-biphenyl-3-yl)-3-hydroxy-propyl]-5-oxo-pyrrolidin-1-yl}-ethyl)-benzoic acid] | 54 µM | 0.00094 µM | 5.1 µM |
| – | O=C(O)CCCCCCN1C(=O)CC[C@@H]1/C=C/C(O)c1cccc(Oc2ccc(Cl)cc2)c1 (stereo partly drawn) [Compound 74, 7-((R)-2-{(E)-3-[3-(4-chloro-phenoxy)-phenyl]-3-hydroxy-propenyl}-5-oxo-pyrrolidin-1-yl)-heptanoic acid] | 47 µM | 0.01 µM | 22.9 µM |
